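Abbreviation: GI50, concentration required for 50% inhibition of growth. At the TGI there is no net growth.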
Legend:
Test in all cases: NCI tumour cell line growth inhibition, 384-well format
OVCAR-5 ovarian = test system: OVCAR-5 ovarian
HT29 colon = test system: HT29 colon
NCI-H322M lung = test system: NCI-H322M lung
RXF 393 renal = test system: RXF 393 renal
NCI-H460 NSCLC = test system: NCI-H460 NSCLC
SF-295 CNS = test system: SF-295 CNS
K-562 leukemia = test system: K-562 leukemia
786-0 renal = test system: 786-0 renal
SR leukemia = test system: SR leukemia
HCT-15 colon = test system: HCT-15 colon
RPMI-8226 leukemia = test system: RPMI-8226 leukemia
MOLT-4 leukemia = test system: MOLT-4 leukemia
HCC-2998 colon = test system: HCC-2998 colon
MDA-MB-468 breast = test system: MDA-MB-468 breast
HS 578T breast = test system: HS 578T breast
NCI/ADR-RES ovarian = test system: NCI/ADR-RES ovarian
SF-539 CNS = test system: SF-539 CNS
SN12C renal = test system: SN12C renal
SNB-19 CNS = test system: SNB-19 CNS
CCRF-CEM leukemia = test system: CCRF-CEM leukemia
UACC-62 melanoma = test system: UACC-62 melanoma
MDA-MB-435 melanoma = test system: MDA-MB-435 melanoma
MALME-3M melanoma = test system: MALME-3M melanoma
A498 renal = test system: A498 renal
MCF7 breast = test system: MCF7 breast
ACHN renal = test system: ACHN renal
TK-10 renal = test system: TK-10 renal
SW-620 colon = test system: SW-620 colon
BT-549 breast = test system: BT-549 breast
SK-MEL-5 melanoma = test system: SK-MEL-5 melanoma
OVCAR-4 ovarian = test system: OVCAR-4 ovarian
KM12 colon = test system: KM12 colon
UACC-257 melanoma = test system: UACC-257 melanoma
OVCAR-3 ovarian = test system: OVCAR-3 ovarian
NCI-H522 lung = test system: NCI-H522 lung
MDA-MB-231 breast = test system: MDA-MB-231 breast
COLO 205 colon = test system: COLO 205 colon
SF-268 CNS = test system: SF-268 CNS
SNB-75 CNS = test system: SNB-75 CNS
CAKI-1 renal = test system: CAKI-1 renal
PC-3 prostate = test system: PC-3 prostate
HOP-92 NSCLC = test system: HOP-92 NSCLC
DU-145 prostate = test system: DU-145 prostate
NCI-H23 lung = test system: NCI-H23 lung
SK-OV-3 ovarian = test system: SK-OV-3 ovarian
IGROV1 ovarian = test system: IGROV1 ovarian
EKVX NSCLC = test system: EKVX NSCLC
HOP-62 NSCLC = test system: HOP-62 NSCLC
UO-31 renal = test system: UO-31 renal
SK-MEL-28 melanoma = test system: SK-MEL-28 melanoma
LOX IMVI melanoma = test system: LOX IMVI melanoma
HL-60(TB) leukemia = test system: HL-60(TB) leukemia
NCI-H226 lung = test system: NCI-H226 lung
OVCAR-8 ovarian = test system: OVCAR-8 ovarian
M14 melanoma = test system: M14 melanoma
T-47D breast = test system: T-47D breast

Compound: FC(F)(c1ccc2ncccc2c1)c1nnc2ccc(-c3ccncc3)nn12
- GI50 (OVCAR-5 ovarian): 112 nM
- TGI (OVCAR-5 ovarian): > 100000 nM
- GI50 (HT29 colon): 185 nM
- TGI (HT29 colon): > 100000 nM
- GI50 (NCI-H322M lung): < 10 nM
- TGI (NCI-H322M lung): > 100000 nM
- GI50 (RXF 393 renal): 11.2 nM
- TGI (RXF 393 renal): 206 nM
- GI50 (NCI-H460 NSCLC): < 10 nM
- TGI (NCI-H460 NSCLC): > 100000 nM
- GI50 (SF-295 CNS): < 10 nM
- TGI (SF-295 CNS): 108 nM
- GI50 (K-562 leukemia): 219 nM
- TGI (K-562 leukemia): > 100000 nM
- GI50 ([…]-0 renal): 191 nM
- TGI (786-0 renal): > 100000 nM
- GI50 (SR leukemia): < 10 nM
- TGI (SR leukemia): 126 nM
- GI50 (HCT-15 colon): 55.7 nM
- TGI (HCT-15 colon): > 100000 nM
- GI50 (RPMI-8226 leukemia): < 10 nM
- GI50 (MOLT-4 leukemia): 10.2 nM
- TGI (MOLT-4 leukemia): 183 nM
- GI50 (HCC-2998 colon): < 10 nM
- TGI (HCC-2998 colon): > 100000 nM
- GI50 (MDA-MB-468 breast): 22 nM
- TGI (MDA-MB-468 breast): 628 nM
- GI50 (HS 578T breast): < 10 nM
- TGI (HS 578T breast): 137 nM
- GI50 (NCI/ADR-RES ovarian): 460 nM
- TGI (NCI/ADR-RES ovarian): 27200 nM
- GI50 (SF-539 CNS): 164 nM
- TGI (SF-539 CNS): > 100000 nM
- GI50 (SN12C renal): 33 nM
- TGI (SN12C renal): > 100000 nM

Compound: CC(C)c1cnn2c(NCc3ccccc3)cc(NC[C@H]3CCNC[C@@H]3O)nc12
- GI50 (SNB-19 CNS): 410 nM
- TGI (SNB-19 CNS): 10500 nM
- GI50 (CCRF-CEM leukemia): 213 nM
- TGI (CCRF-CEM leukemia): 380 nM
- GI50 (UACC-62 melanoma): 57.8 nM
- TGI (UACC-62 melanoma): 238 nM
- GI50 (OVCAR-5 ovarian): 246 nM
- TGI (OVCAR-5 ovarian): 770 nM
- GI50 (HT29 colon): 330 nM
- TGI (HT29 colon): 10700 nM
- GI50 (MDA-MB-435 melanoma): 409 nM
- TGI (MDA-MB-435 melanoma): 1450 nM
- GI50 (MALME-3M melanoma): 345 nM
- TGI (MALME-3M melanoma): 1800 nM
- GI50 (A498 renal): 157 nM
- TGI (A498 renal): 599 nM
- GI50 (MCF7 breast): 113 nM
- TGI (MCF7 breast): 474 nM
- GI50 (ACHN renal): 782 nM
- TGI (ACHN renal): 11200 nM
- GI50 (TK-10 renal): 2980 nM
- TGI (TK-10 renal): 14000 nM
- GI50 (NCI-H322M lung): 291 nM
- TGI (NCI-H322M lung): 975 nM
- GI50 (SW-620 colon): 167 nM
- TGI (SW-620 colon): 1660 nM
- GI50 (BT-549 breast): 241 nM
- TGI (BT-549 breast): 519 nM
- GI50 (SK-MEL-5 melanoma): 242 nM
- TGI (SK-MEL-5 melanoma): 655 nM
- GI50 (OVCAR-4 ovarian): 154 nM
- TGI (OVCAR-4 ovarian): 475 nM
- GI50 (KM12 colon): 128 nM
- TGI (KM12 colon): 541 nM
- GI50 (UACC-257 melanoma): 371 nM
- TGI (UACC-257 melanoma): 1660 nM
- GI50 (OVCAR-3 ovarian): 105 nM
- TGI (OVCAR-3 ovarian): 578 nM
- GI50 (RXF 393 renal): 251 nM
- TGI (RXF 393 renal): 635 nM
- GI50 (NCI-H522 lung): 164 nM
- TGI (NCI-H522 lung): 1680 nM
- GI50 (MDA-MB-231 breast): 290 nM
- TGI (MDA-MB-231 breast): 1730 nM
- GI50 (NCI-H460 NSCLC): 22.6 nM
- TGI (NCI-H460 NSCLC): 64.6 nM
- GI50 (SF-295 CNS): 419 nM
- TGI (SF-295 CNS): 3460 nM
- GI50 (K-562 leukemia): 389 nM
- TGI (K-562 leukemia): 1960 nM
- GI50 (COLO 205 colon): 133 nM
- TGI (COLO 205 colon): 411 nM
- GI50 (SF-268 CNS): 173 nM
- TGI (SF-268 CNS): 411 nM
- GI50 (SNB-75 CNS): 789 nM
- TGI (SNB-75 CNS): 2040 nM
- GI50 (CAKI-1 renal): 317 nM
- TGI (CAKI-1 renal): 2820 nM
- GI50 (PC-3 prostate): 271 nM
- TGI (PC-3 prostate): 985 nM
- GI50 (HOP-92 NSCLC): 382 nM
- TGI (HOP-92 NSCLC): 2340 nM
- GI50 (DU-145 prostate): 111 nM
- TGI (DU-145 prostate): 1780 nM
- GI50 ([…]-0 renal): 211 nM
- TGI (786-0 renal): 1520 nM
- GI50 (SR leukemia): 23.5 nM
- TGI (SR leukemia): 103 nM
- GI50 (NCI-H23 lung): 167 nM
- TGI (NCI-H23 lung): 644 nM
- GI50 (HCT-15 colon): 1300 nM
- TGI (HCT-15 colon): 8560 nM
- GI50 (RPMI-8226 leukemia): 16.9 nM
- TGI (RPMI-8226 leukemia): 56.5 nM
- GI50 (SK-OV-3 ovarian): 360 nM
- TGI (SK-OV-3 ovarian): 6890 nM
- GI50 (IGROV1 ovarian): 332 nM
- TGI (IGROV1 ovarian): 2870 nM
- GI50 (MOLT-4 leukemia): 122 nM
- TGI (MOLT-4 leukemia): 267 nM
- GI50 (HCC-2998 colon): 223 nM
- TGI (HCC-2998 colon): 787 nM
- GI50 (MDA-MB-468 breast): 328 nM
- TGI (MDA-MB-468 breast): 662 nM
- GI50 (EKVX NSCLC): 467 nM
- TGI (EKVX NSCLC): 2530 nM
- GI50 (HOP-62 NSCLC): 131 nM
- TGI (HOP-62 NSCLC): 346 nM
- GI50 (HS 578T breast): 214 nM
- TGI (HS 578T breast): 501 nM
- GI50 (NCI/ADR-RES ovarian): 13800 nM
- TGI (NCI/ADR-RES ovarian): 28900 nM
- GI50 (UO-31 renal): 3870 nM
- TGI (UO-31 renal): 14800 nM
- GI50 (SK-MEL-28 melanoma): 226 nM
- TGI (SK-MEL-28 melanoma): 1130 nM
- GI50 (SF-539 CNS): 107 nM
- TGI (SF-539 CNS): 345 nM
- GI50 (LOX IMVI melanoma): 84.5 nM
- TGI (LOX IMVI melanoma): 260 nM
- GI50 (HL-60(TB) leukemia): 156 nM
- TGI (HL-60(TB) leukemia): 291 nM
- GI50 (SN12C renal): 168 nM
- TGI (SN12C renal): 841 nM
- GI50 (NCI-H226 lung): 193 nM
- TGI (NCI-H226 lung): 675 nM
- GI50 (OVCAR-8 ovarian): 249 nM
- TGI (OVCAR-8 ovarian): 973 nM
- GI50 (M14 melanoma): 292 nM
- TGI (M14 melanoma): 1190 nM
- GI50 (T-47D breast): 404 nM
- TGI (T-47D breast): 3740 nM
